Like-named read-outs stand apart in the source and are kept apart here.
How the values were obtained:
[1] = system: Pure variant di-heteromeric GluN2B-E413G; parameters: method as in PMID 27839871; settings: glutamate; ref 21; cited from earlier work
[2] = system: Pure variant di-heteromeric GluN2A-P552R; parameters: method as in PMID 28095420; settings: glutamate; di-heteromer section; cited from earlier work
[3] = system: Pure variant di-heteromeric GluN2B-C461F; parameters: method as in PMID 27839871; settings: glutamate; ref 21; cited from earlier work
[4] = system: Pure variant di-heteromeric GluN2A-L812M; parameters: method as in PMID 24504326; settings: glutamate; ref 39; cited from earlier work
[5] = system: Mixed di-heteromeric GluN2A-wt/GluN2A-D731N; parameters: method as in PMID 28182669; settings: glutamate; ref 33; cited from earlier work
[6] = system: wt tri-heteromeric GluN2A-wt/GluN2B-wt NMDAR; settings: glutamate, cited from earlier work
[7] = system: Pure variant di-heteromeric GluN2A-H485A; parameters: method as in PMID 24607230; settings: glutamate; ref 8; cited from earlier work
[8] = system: Pure variant di-heteromeric GluN2A-M817V; parameters: method as in PMID 28126851; settings: glutamate; ref 91; cited from earlier work
[9] = system: Mixed di-heteromeric GluN2B-wt/GluN2B-E413G; parameters: method as in PMID 27839871; settings: glutamate; ref 21; cited from earlier work
[10] = system: Mixed tri-heteromeric GluN2A-M817V/ GluN2B-wt; parameters: method as in PMID 35110392; settings: glutamate; ref 10; cited from earlier work
[11] = system: Tri-heteromeric GluN2A-wt/GluN2B-G689S; assay type: cell-based, rat; settings: compared to GluN2A-wt + GluN2B-wt tri-heteromeric channels
Text: (§1) Aliquots were thawed before each experiment.

[12] = target: T1, Tri-heteromeric GluN2A-wt/GluN2B-G689C (Rattus norvegicus, UniProt P35439+Q00959+Q00960, A876H/F846L/G689C/G856D/H848F/K857R/M851T/M860L/Q845K/V861L); assay type: cell-based; settings: glutamate dose-response
T1 construct: expressed in transfected cells; host or cells: Xenopus laevis oocytes, mRNA injection
Text: as §1

[13] = target: T2, Tri-heteromeric GluN2A-wt/GluN2B-G689S (Rattus norvegicus, UniProt P35439+Q00959+Q00960, A876H/F846L/G689S/G856D/H848F/K857R/M851T/M860L/Q845K/V861L); assay type: cell-based; settings: glutamate dose-response
T2 construct: expressed in transfected cells; host or cells: Xenopus laevis oocytes, mRNA injection
T2 sequence (Q00960+Q00959 fused with the stated changes, other chains not shown): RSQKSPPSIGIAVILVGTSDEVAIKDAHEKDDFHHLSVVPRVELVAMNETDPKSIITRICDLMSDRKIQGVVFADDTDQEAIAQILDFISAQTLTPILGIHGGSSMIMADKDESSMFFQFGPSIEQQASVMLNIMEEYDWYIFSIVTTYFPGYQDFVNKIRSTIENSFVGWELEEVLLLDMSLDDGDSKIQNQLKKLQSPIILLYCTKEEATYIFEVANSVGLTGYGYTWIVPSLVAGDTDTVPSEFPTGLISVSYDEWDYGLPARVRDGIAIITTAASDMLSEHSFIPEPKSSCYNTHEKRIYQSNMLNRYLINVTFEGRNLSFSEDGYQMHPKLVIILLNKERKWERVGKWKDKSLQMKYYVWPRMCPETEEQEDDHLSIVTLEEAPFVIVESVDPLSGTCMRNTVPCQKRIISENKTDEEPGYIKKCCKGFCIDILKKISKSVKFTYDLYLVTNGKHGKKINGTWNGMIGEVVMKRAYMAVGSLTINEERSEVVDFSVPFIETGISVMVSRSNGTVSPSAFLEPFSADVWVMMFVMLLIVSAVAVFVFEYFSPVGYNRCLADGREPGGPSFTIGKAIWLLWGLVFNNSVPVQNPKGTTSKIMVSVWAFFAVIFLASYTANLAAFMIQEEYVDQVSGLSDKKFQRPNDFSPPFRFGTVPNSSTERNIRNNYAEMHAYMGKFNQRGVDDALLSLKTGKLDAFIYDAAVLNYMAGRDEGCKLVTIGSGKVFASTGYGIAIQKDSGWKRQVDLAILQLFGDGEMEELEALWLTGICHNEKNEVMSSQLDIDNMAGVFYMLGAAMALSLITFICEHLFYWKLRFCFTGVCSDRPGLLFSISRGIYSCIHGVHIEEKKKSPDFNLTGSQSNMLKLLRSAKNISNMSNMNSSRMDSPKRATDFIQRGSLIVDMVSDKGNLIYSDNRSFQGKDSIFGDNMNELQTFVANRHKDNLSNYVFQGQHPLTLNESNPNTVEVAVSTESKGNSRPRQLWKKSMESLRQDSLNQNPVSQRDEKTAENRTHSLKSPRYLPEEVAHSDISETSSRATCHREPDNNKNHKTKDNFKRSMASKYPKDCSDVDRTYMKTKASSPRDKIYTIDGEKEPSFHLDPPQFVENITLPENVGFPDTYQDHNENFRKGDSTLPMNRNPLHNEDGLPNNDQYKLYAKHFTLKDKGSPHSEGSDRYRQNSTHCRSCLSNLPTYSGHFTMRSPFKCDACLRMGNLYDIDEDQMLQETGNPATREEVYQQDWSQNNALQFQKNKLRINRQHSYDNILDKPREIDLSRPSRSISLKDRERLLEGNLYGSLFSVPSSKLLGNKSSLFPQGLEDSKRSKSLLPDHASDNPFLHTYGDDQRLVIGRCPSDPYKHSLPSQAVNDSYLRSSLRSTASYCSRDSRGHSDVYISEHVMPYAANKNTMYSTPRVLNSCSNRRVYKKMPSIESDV
T2 sequence (Q00959 23-1464, other chains not shown): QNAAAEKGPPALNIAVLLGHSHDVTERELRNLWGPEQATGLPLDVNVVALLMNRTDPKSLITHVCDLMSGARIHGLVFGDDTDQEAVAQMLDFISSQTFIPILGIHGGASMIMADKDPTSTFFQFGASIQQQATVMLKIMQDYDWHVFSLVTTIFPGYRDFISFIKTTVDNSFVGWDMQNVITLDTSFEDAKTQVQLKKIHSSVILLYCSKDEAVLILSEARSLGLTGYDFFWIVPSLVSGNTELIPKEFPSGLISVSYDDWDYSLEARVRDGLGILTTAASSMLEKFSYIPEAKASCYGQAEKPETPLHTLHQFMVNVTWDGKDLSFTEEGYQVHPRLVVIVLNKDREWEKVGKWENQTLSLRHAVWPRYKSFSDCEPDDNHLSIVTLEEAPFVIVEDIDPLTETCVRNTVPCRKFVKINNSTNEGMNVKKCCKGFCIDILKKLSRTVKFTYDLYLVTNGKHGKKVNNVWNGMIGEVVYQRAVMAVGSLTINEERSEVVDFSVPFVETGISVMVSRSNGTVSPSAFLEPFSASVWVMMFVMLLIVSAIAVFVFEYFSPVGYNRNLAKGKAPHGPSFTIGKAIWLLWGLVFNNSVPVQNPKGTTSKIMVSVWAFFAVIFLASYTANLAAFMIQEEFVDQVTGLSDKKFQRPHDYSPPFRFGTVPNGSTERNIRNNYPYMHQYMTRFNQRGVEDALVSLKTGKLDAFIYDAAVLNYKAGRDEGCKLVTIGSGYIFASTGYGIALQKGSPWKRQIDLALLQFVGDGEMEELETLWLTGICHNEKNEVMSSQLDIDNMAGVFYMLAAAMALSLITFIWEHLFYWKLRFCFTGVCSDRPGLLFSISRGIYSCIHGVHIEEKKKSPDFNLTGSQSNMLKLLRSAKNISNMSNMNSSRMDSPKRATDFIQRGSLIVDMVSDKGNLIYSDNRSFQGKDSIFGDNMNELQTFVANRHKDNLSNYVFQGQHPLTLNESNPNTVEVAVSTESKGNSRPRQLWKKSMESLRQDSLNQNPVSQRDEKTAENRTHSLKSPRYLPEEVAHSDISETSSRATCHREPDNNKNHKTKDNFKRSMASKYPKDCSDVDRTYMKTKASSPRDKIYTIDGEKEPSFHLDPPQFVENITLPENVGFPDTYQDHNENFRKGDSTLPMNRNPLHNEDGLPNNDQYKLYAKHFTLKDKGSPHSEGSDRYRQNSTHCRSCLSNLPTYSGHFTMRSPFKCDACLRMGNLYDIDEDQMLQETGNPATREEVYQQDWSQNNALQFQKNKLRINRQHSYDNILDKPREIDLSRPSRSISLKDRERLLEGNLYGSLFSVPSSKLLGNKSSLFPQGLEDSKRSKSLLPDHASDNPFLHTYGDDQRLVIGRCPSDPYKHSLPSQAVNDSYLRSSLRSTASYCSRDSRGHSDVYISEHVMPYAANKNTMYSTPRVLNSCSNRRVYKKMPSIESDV
Text: as §1

[14] = system: Tri-heteromeric GluN2A-wt/GluN2B-G689C; assay type: cell-based, rat; settings: compared to GluN2A-wt + GluN2B-wt tri-heteromeric channels
Text: as §1

[15] = system: non-tagged purely di-heteromeric GluN2B-wt; parameters: method as in PMID 32168371; settings: read-out: Glutamate EC50 (adapted from[16]); non-tagged human receptors; cited from earlier work
[16] = system: Mixed di-heteromeric GluN2B-wt/GluN2B-H486A; parameters: method as in PMID 24607230; settings: glutamate; ref 8; cited from earlier work
[17] = system: Double Variant Tri-Heteromeric NMDAR (GluN2A-H485A, GluN2B-H486A); parameters: method as in PMID 24607230; settings: glutamate; ref 8; cited from earlier work
[18] = system: Pure variant di-heteromeric GluN2B-A819T; parameters: method as in PMID 28377535; settings: glutamate; ref 25; cited from earlier work
[19] = system: Mixed tri-heteromeric GluN2A-wt/ GluN2B-M818T; parameters: method as in PMID 35110392; settings: glutamate; ref 10; cited from earlier work
[20] = system: Pure variant di-heteromeric GluN2B-A639V; parameters: method as in PMID 35110392; settings: glutamate; ref 10; cited from earlier work
[21] = system: Mixed tri-heteromeric GluN2A-E551K/ GluN2B-wt; parameters: method as in PMID 35110392; settings: glutamate; ref 10; cited from earlier work
[22] = target: Tri-heteromeric GluN2A-wt/GluN2B-wt (Rattus norvegicus, UniProt P35439+Q00959+Q00960, A876H/F846L/G856D/H848F/K857R/M851T/M860L/Q845K/V861L); test: TEVC in Xenopus oocytes; settings: glutamate dose-response
Description: Two electrode voltage clamp (TEVC) recordings were carried out 24–72 h after mRNA injections, as previously described [17, 37]. We use a commercial amplifier (Warner Instruments, USA) and Digitizer (Digidata-1550B; Molecular Devices, USA), controlled by the pClamp10 software (Molecular Devices, USA). Electrode were made by pulling glass capillaries (Narishige, Japan) filled with 3 M KCl, into which we inserted chlorinated silver wires. […] For hERG channel recordings, oocytes were clamped at (− 60) mV for 1 s, followed by a voltage jump to 20 mV for 4 s, and an additional voltage jump to (− 50) mV for 6 s and return to baseline voltage (see Supplementary. 6f), as previously described [53].
When assessing potentiation by PS, all other solutions also included equal amounts of the DMSO carrier (0.2%).
Electrophysiology data were analyzed by Clampfit 11.2 (Molecular Devices, USA), plotted using GraphPad 8 or SigmaPlot 11(Systat software, Inc.). […] In all TEVC recordings in oocytes, the responses were normalized to current amplitude obtained from that individual cell. […] All data are shown as mean ± SEM. In all experiments N indicates the number of independent experiments, whereas n indicates the number of cells recorded. In each experiment, data underwent normality test prior to statistical assessment. Normally distributed data were assessed for significance by using paired t-test or one-way ANOVA for multiple group comparison and post hoc Tukey test or Dunnett's test. Similarly, in the case of non-normally distributed data significance was assessed by Mann Whitney test or Kruskal–Wallis ANOVA on ranks test followed by Dunn’s multiple comparison post hoc; n.s., non-significant; *p < 0.05; **p < 0.01; ***p < 0.001. […] Leak expression was evaluated by normalizing the maximal current (Imax) of each ER-retained NMDAR composition to Imax of control group (which was recorded in all experiments). […]

[23] = system: Mixed di-heteromeric GluN2A-wt/GluN2A-M817V; parameters: method as in PMID 28126851; settings: glutamate; ref 91; cited from earlier work
[24] = system: non-tagged purely di-heteromeric GluN2B-G689S; settings: read-out: Glutamate EC50 (adapted from[16]); non-tagged human receptors; cited from earlier work
[25] = system: Mixed tri-heteromeric GluN2A-L812M/ GluN2B-wt; parameters: method as in PMID 35110392; settings: glutamate; ref 10; cited from earlier work
[26] = system: non-tagged purely di-heteromeric GluN2B-G689C; settings: read-out: Glutamate EC50 (adapted from[16]); non-tagged human receptors; cited from earlier work
[27] = system: Pure variant di-heteromeric GluN2B-H486A; parameters: method as in PMID 24607230; settings: glutamate; ref 8; cited from earlier work
[28] = system: Mixed tri-heteromeric GluN2A-L649V/ GluN2B-wt; parameters: method as in PMID 35110392; settings: glutamate; ref 10; cited from earlier work

N[C@@H](CCC(=O)O)C(=O)O [Glutamate, glutamate]
EC50 [1]: 82 µM
EC50 [2]: 0.64 µM
EC50 [3]: 290 µM
EC50 [4]: 0.39 µM
EC50 [5]: 6450 µM
EC50 ([6]; ref 8): 2.6 µM
EC50 ([6]; ref 10): 2.2 µM
EC50 [7]: 1060 µM
EC50 [8]: 0.47 µM
EC50 [9]: 21 µM
EC50 [10]: 0.75 µM
increase in EC50 [11]: ~ 600 fold
Hill coefficient (nH) [12]: 0.85 ± 0.14 n.s (N = 1, n = 10)
Hill coefficient (nH) [13]: 1.06 ± 0.13 n.s (N = 1, n = 11)
increase in EC50 [14]: ~ 300 fold
EC50 [15]: 1.4 ± 0.1 µM
EC50 [16]: 75 µM
EC50 [17]: 730 µM
EC50 [18]: 0.58 µM
EC50 [19]: 0.96 µM
EC50 [20]: 0.28 µM
EC50 [21]: 0.7 µM
Hill coefficient (nH) [22]: 0.77 ± 0.22 (N = 3, n = 33)
EC50 [23]: 1.1 µM
EC50 [24]: 2500 ± 400 µM
EC50 [25]: 0.84 µM
EC50 [26]: 1500 ± 200 µM
EC50 [27]: 460 µM
EC50 [28]: 0.36 µM

Reference: publication PMC11127902, “Rescuing tri-heteromeric NMDA receptor function: the potential of pregnenolone-sulfate in loss-of-function GRIN2B variants” (Cellular and Molecular Life Sciences: CMLS, 2024)
